Patent EP1372636B1, “METRONOMIC DOSING OF TAXANES FOR INHIBITING TUMOR GROWTH” (Bristol-Myers Squibb Company, priority 2001, dated 2002)
Like-named read-outs stand apart in the source and are kept apart here.

Columns and labels:
HUVEC = experiment: In vitro HUVEC tube formation on […]; type: cell-based, human; set-up: key: C= complete; P= partial
Protocol: Angiogenesis results in a network of functional blood vessels that contain red blood cells. In vitro assays that, in part, mimic that process have been established. Primary endothelial cells such as HUVEC when placed on […] (Collaborative Research, Inc.) form a three-dimensional network of tubes that align into cords. In this assay system, tube formation was evaluated on an extracellular protein matrix consisting of […] diluted 1:1 with culture media (EBM-2; CLONETICS, Inc.) and allowed to polymerize for 60 minutes at 37 C. […] Eighteen hours following the plating of cells, the media was removed and cultures were fixed in formalin. Inhibition of tubes on […] is evaluated on an inverted microscope using phase contrast lighting. To determine the effect of compounds in this assay, a descriptive approach was developed. […] Partial inhibition is defined as an incomplete network with a large number of single cells. Complete inhibition is defined as greater than 99% of cells occurring as single cells with no elongated or branching structures. The number of single cells occurring after vehicle treatment (control) is subtracted from the total number of single cells occurring in the treated groups prior to assessing the effects of test compounds for establishing background effects.

[1] = test system: human umbilical vein endothelial cell (HUVEC); experiment: HUVEC proliferation (3H-thymidine incorporation); type: cell-based; conditions: for IC50: Homo sapiens, HUVEC, read-out: IC50 in Cells HUVEC
Protocol: (§4) Primary human umbilical vein endothelial cells (HUVEC) were purchased from CLONETICS Inc. (San Diego, CA) and used at passage 2 to 3. Proliferation was measured using ^3H-thymidine incorporation in cells by pulsing twenty-four hours prior to harvesting cell cultures. The human breast carcinoma line H3396 was used to assess activity of compound on tumor cells. Cells (2 x 10^3) were plated on collagen IV coated 96 well plates. Twenty-four hours later, compounds were added at varying concentrations. After 48 hours, ^3H-thymidine was added and cells were allowed to incorporate this label over a twenty-four hour period. Cellular extracts were harvested onto glass filters and incorporated radioactivity was determined by counting in a Beta scintillation counter. The IC50, defined as the drug concentration that causes 50% inhibition of ^3H-thymidine incorporation, was extrapolated from the plotted data.

[2] = Oral bioavailability in the rat; type: in vivo
[3] = test system: human breast carcinoma line H3396; experiment: H3396 tumor cell proliferation (3H-thymidine incorporation); type: cell-based
Protocol: as §4

[4] = Oral bioavailability in the dog; type: in vivo
[5] = test system: endothelial cells occurring in MATRIGEL plugs; experiment: In vivo […] plug angiogenesis model (number of endothelial cells in plugs); set-up: species or system athymic (nu/nu) Balb/c mice; conditions: q2dx5; for reduction of cell number in plugs: oral gavage
Protocol: (§1) LX1 human lung tumor fragments that were maintained by serial subcutaneous passage in athymic (nu/nu) Balb/c mice were implanted subcutaneously as small fragments approximately 0.1 mm^3 in size. Tumor volume doubling time for this tumor in these studies was 2.8 days. When tumors reached the size range of 150-200 mm^3, liquid […] was injected subcutaneously on the side contralateral to the tumor. Treatment was initiated 24 hours later at varying doses and schedules. Prior to implanting, […] is prepared by placing solidified […] on ice overnight at 4 C in accordance with the method described by Passiniti et al. (Lab. Invest. 1992 67:519-28). At the liquid phase and while on ice, VEGF and bFGF (Peprotech, Inc. Rocky Hill, NJ) is added to the […] at final respective concentrations of 75 ng/ml and 300 ng/ml. Stock solutions of these growth factors are made fresh at […] in PBS. Twenty-four hours following final treatment, animals were sacrificed by cervical dislocation and […] plugs from treated and control animals were excised and fixed for at least 48 hours in 10% neutral buffered formalin. These plugs were then processed for paraffin embedding and sectioned at 5 µm thickness followed by staining with hematoxylin and eosin prior to quantitative analysis. The number of endothelial cells in plugs was quantitated using the IMAGEPRO PLUS software (Media Cybernetics, Inc., Silver Spring, MD) at a magnification of 20x. Fifty fields of view from each plug were used for counting the number of endothelial cells. The number of cells were summarized and compared statistically to controls.
(§2) Angiogenesis is evaluated in these plugs as the number of endothelial cells migrating into plugs from compound treated groups relative to the vehicle treated group. Tumors were implanted for the purpose of monitoring the anti-tumor effects of these compounds throughout these studies in order to assure compound efficacy at the therapeutic doses.
(§3) For TAXOL, normal saline was used as the diluent and delivery was made intravenously. For the oral taxane of Formula I, sterilized water was used as the diluent and delivery was by oral gavage.

[6] = as above; set-up: species or system athymic (nu/nu) Balb/c mice; conditions: mouse, in vivo, read-out: maximum tolerated dose (MTD)
Protocol: as §1, §2, §3

[7] = test system: mammary 16/C murine carcinoma; experiment: Staged subcutaneous mammary 16/C carcinoma in mice, gross log cell kill; type: in vivo, C3H mice
Text: The final concentrations of each component of the vehicle was as follows: CREMOPHOR 10%; ethanol 10%; aqueous 80%.
C3H conventional mice were purchased from Harlan-Sprague Dawley (Indianapolis, IN) and fed mouse chow and water ad libitum.
The metastatic mammary 16/C murine carcinoma was propagated biweekly in C3H mice. Experiments were initiated by subcutaneous insertion by trocar of tumor fragments.
For in vivo tumor testing, the C3H mice were implanted subcutaneously with mammary 16/C tumor fragments. All treatments were initiated on Day 10 post-tumor implant, except for an untreated control group. All groups contained 8 mice. Tumors were measured once or twice weekly and dimensions were converted to weights using the formula Weight (milligrams)= a x b^2, where a=length and b=width (in millimeters). The median time for tumors within each group of mice to reach 1 gram was determined and the delays in median time to reach 1 gram tumor target size for treated (T) versus control (C) groups was calculated. These delays in tumor growth (T-C value in days) were further converted to gross log cell kill (LCK) values using the formula T-C/(tumor volume doubling time, TVDT, of the control group) x (3.32). A LCK of greater than or equal to 1 LCK was considered an active result. Cures were assessed at the end of each experiment and defined in the absence of a tumor mass of greater than 35 milligrams. Experiments were terminated more than 10 x TVDT following the completion of all treatments.

Text for L2987 human lung tumor: L2987 human lung tumors were implanted and allowed to reach 50 to 100 mm^3 before drug administration.

## COC(=O)O[C@@]12CO[C@@H]1C[C@H](O)[C@@]1(C)C(=O)[C@H](OC(C)=O)C3=C(C)[C@@H](OC(=O)[C@H](O)[C@@H](NC(=O)OC(C)(C)C)C(C)(C)C)C[C@@](O)([C@@H](OC(=O)c4ccccc4)[C@H]21)C3(C)C [Formula I, 3'-tert-Butyl-3'-N-tert-butyloxycarbonyl-4-deacetyl-3'-dephenyl-3'-N-debenzoyl-4-O-methoxycarbonyl-paclitaxel]
HUVEC; 0.0005µM
  Inhibition of HUVEC Tube Formation on MATRIGEL: P
HUVEC; 0.0050µM
  Inhibition of HUVEC Tube Formation on MATRIGEL: P
HUVEC; 0.0500µM
  Inhibition of HUVEC Tube Formation on MATRIGEL: C
HUVEC; 0.5000µM
  Inhibition of HUVEC Tube Formation on MATRIGEL: C
HUVEC; 5.000µM
  Inhibition of HUVEC Tube Formation on MATRIGEL: C
[1]
  IC50: 2 nM
L2987 human lung tumor; 20 mg/kg orally, metronomic schedule q2dx15
  weight loss: no weight loss was observed
L2987 human lung tumor; 20 mg/kg orally, metronomic schedule q2dx15 (cumulative 300 mg/kg)
  tumor growth: suppressed tumor growth
L2987 human lung tumor; 60 mg/kg orally, standard schedule q2dx5
  weight loss: weight loss was also observed
L2987 human lung tumor; 60 mg/kg orally, standard schedule q2dx5 (cumulative 300 mg/kg), compared with metronomic regime
  anti-tumor response: greater anti-tumor response
[2]
  oral bioavailability: good
[3]; H3396, read-out: IC50 in Cells H3396, 3H-thymidine incorporation, two separate experiments (two columns)
  IC50: 2 nM
[4]
  oral bioavailability: good
[5]; 18 mg/kg
  reduction of cell number in plugs: greater than 50%
[5]; 36 mg/kg
  reduction of cell number in plugs: greater than 50%
[5]; 60 mg/kg (MTD)
  reduction of cell number in plugs: greater than 50%
[6]; po
  MTD: 60 mg/kg

## CC(=O)O[C@H]1C(=O)[C@@]2(C)[C@H]([C@H](OC(=O)c3ccccc3)[C@]3(O)C[C@H](OC(=O)[C@H](O)[C@@H](NC(=O)c4ccccc4)c4ccccc4)C(C)=C1C3(C)C)[C@]1(OC(C)=O)CO[C@@H]1C[C@@H]2O [TAXOL, paclitaxel]
HUVEC; 0.0005µM
  Inhibition of HUVEC Tube Formation on MATRIGEL: P
HUVEC; 0.0050µM
  Inhibition of HUVEC Tube Formation on MATRIGEL: P
HUVEC; 0.0500µM
  Inhibition of HUVEC Tube Formation on MATRIGEL: C
HUVEC; 0.5000µM
  Inhibition of HUVEC Tube Formation on MATRIGEL: C
HUVEC; 5.000µM
  Inhibition of HUVEC Tube Formation on MATRIGEL: C
[1]; 3H-thymidine incorporation, two separate experiments (two columns)
  IC50: 3 nM
[1]; ratio of IC50 in H3396 to IC50 in HUVEC
  H3396/HUVEC: 0.88
[7]; Paclitaxel 20 mg/kg/inj qd 10-14 iv, no Formula I, Paclitaxel 20 mg/kg/inj qd 32-36 iv
  Gross LCK: 4.5
[7]; Paclitaxel 20 mg/kg/inj qd 10-14 iv, no Formula I, Paclitaxel 30 mg/kg/inj qd 32-36 iv
  Gross LCK: 4.7
[7]; Paclitaxel 30 mg/kg/inj qd 10-14 iv alone (single course)
  Gross LCK: 1.9
[7]; Paclitaxel 30 mg/kg/inj qd 10-14 iv alone, Cures assessed on Day 60
  cures/total: 2/8
[7]; Paclitaxel 45 mg/kg/inj qd 10-14 iv alone (single course)
  Gross LCK: 1.9
[7]; Paclitaxel 45 mg/kg/inj qd 10-14 iv alone, Cures assessed on Day 60 post tumor implant
  cures/total: 1/8
[7]; Paclitaxel 20 qd 10-14 iv, no Formula I, Paclitaxel 30 qd 32-36 iv, Cures assessed on Day 88
  cures/total: 1/8
[7]; Paclitaxel 30 qd 10-14 iv, no Formula I, Paclitaxel 30 qd 32-36 iv, Cures assessed on Day 88 post-tumor implant, listed as Paclitaxel
  cures/total: 2/8
[7]; Paclitaxel 30 qd 10-14 iv, no Formula I, Paclitaxel 30 qd 32-36 iv, Cures assessed on Day 88 post-tumor implant, listed as paclitaxel
  cures/total: 2 of 8
[7]; qdx5, iv, beginning on Day 10 post-tumor implant
  MTD regimen: 45 mg/kg/injection
[3]; H3396, 3H-thymidine incorporation, two separate experiments (two columns), read-out: IC50 in Cells H3396
  IC50: 3 nM
[5]; 24 mg/kg (MTD), intravenously
  reduction in cell number in MATRIGEL plugs compared to control groups: greater than 50%
[6]; athymic (nu/nu) Balb/c, intravenous
  MTD: 24 mg/kg
